Test results: patent US12241902B2, “Probes for detection of copper” (The Regents of the University of California, priority 2019, dated 2025)
“And” between values parts separate entries of the source, which are not always exact repeats. Equal entries are not always repeated.

What was measured:
[1] = UV-vis absorption and emission measurements in aqueous buffer; format: physicochemical; conditions: for molar extinction coefficient: PBS, glutathione 2 mM, PEG-400 40% v/v
Procedure: UV-vis absorption and emission measurements. FCP-1 stock solution in DMSO (5 mM) was prepared, aliquoted and stored at […]. For each spectroscopic measurement, a fresh aliquot was diluted to 500 μM by DMSO and further diluted with PBS containing 2 mM GSH/PEG-400 mixture (3:2, v/v) to prepare the sensing solution with 5 μM of FCP-1. The sensing solution was pre-incubated in a water bath at 37° C., and then [Cu(CH3CN)](PF6) in MeCN or other metal ions in H2O was added. The solution mixture was kept at 37° C. and taken out for UV-vis absorption or emission spectroscopic measurements in quartz cuvette at predetermined time intervals. Emission spectra were corrected using coumarin 153 as secondary emission standard (4). Photoluminescence quantum yield (PLQY) was determined using fluorescein in 0.1 M NaOH solution (0.95; λex=496 nm). FRET efficiency from the fluorescein moiety to rhodamine moiety of FCP-1 was estimated by [1−(PLQY of FCP-1/PLQY of FL-TPA)].
FCP-1 in PBS buffer containing glutathione (2 mM) and PEG-400 (40%, v/v) was evaluated. […] The first two absorption maxima corresponded to the absorption of the fluorescein moiety, as similar absorption maxima at 460 and 489 nm were found in the absorption spectra of FL-TPA (FIG. 4), whereas the lowest energy absorption at 552 nm originated from the rhodamine moiety (FIG. 4). […] Together with the significant contribution of the lower-energy fluorescence from the excitation at 450-500 nm, which is in the region of FL-TPA absorption (FIG. 6), the data support the occurrence of FRET from the fluorescein donor to the rhodamine acceptor. Using FL-TPA as a reference FRET donor compound (FIG. 7) with assumption that quenching of donor fluorescence originated only from the FRET process, the FRET efficiency in the FCP-1 cassette is estimated to be 84%.

[2] = test system: labile Cu(I) pools in HEK 293T cells; assay: Ratiometric confocal fluorescence imaging of labile Cu(I) in HEK 293T cells; format: cell-based, Human
Procedure: (A) Confocal fluorescence microscopy images of HEK 293T cells pretreated with solvent vehicle control or varying concentrations of CuCl2 in complete medium for 18 h. The cells were then washed with PBS, incubated with FCP-1 (5 μM) in DPBS for 45 min and then imaged. (B) Average cellular ratiometric emission ratios, represented by Fgreen/Forange, as determined from imaging experiments in (A) performed in triplicate. (C) Confocal fluorescence microscopy images of HEK 293T cells pretreated with solvent vehicle control or BCS (100 μM) in complete medium for 18 h. The cells were then washed with PBS, incubated with FCP-1 (5 μM) in DPBS for 45 min and then imaged. (D) Average cellular ratiometric emission ratios of FCP-1, Fgreen/Forange, as determined from experiments in (C) performed in triplicate. […] (E) ICP-MS measurement to determine total cellular ^63Cu levels in HEK293T cells under copper supplementation and depletion relative to the control (with normalization of different cell numbers by total cellular ^31P level). Error bars denote standard derivation (SD; n=3). *p<0.05, **p<0.01, ***p<0.001, ****p<0.0001 and *****p<0.00001.
Cell culture. Following cell cultures were grown: Human embryonic kidney (HEK 293T) cells were maintained in Dulbecco's Modified Eagle Medium (DMEM) supplemented with 10 vol % fetal bovine serum (FBS), 1 vol % GlutaMax (Gibco) and 1 vol % non-essential amino acids (NEAA, Gibco). Ctrl1^+/+ and Ctr1^−/− MEF cells were maintained in DMEM with 10 vol % FBS, 1 vol % non-essential amino acids, 1 vol % sodium pyruvate and 0.1 vol % 2-mercaptoethanol or DMEM supplemented with 10 vol % FBS and 1× Penicillin-Streptomycin. Human cervical epithelial carcinoma (HeLa) was maintained in DMEM medium supplemented with 1 vol % GlutaMAX and 10 vol % FBS. […]
Confocal fluorescence microscopy imaging. For confocal fluorescence imaging experiments of HEK293T, MEF Ctr1^+/+ and Ctr1^−/− and HeLa cells, the cells were plated on 8-well Lab Tek borosilicate chambered coverglass slides (Nunc), and allowed to grow to ca. 60% confluency before performing the cell imaging experiments. […] For quantification, a threshold value was set as background and the average intensity of the whole image was measured by ImageJ. […]
Given the metal and oxidation state-selective and sensitive response of FCP-1 to Cu(I), this probe was examined for ratiometric fluorescence imaging of labile Cu(I) pools in living cells. […] The observed increases and decreases in labile Cu(I) levels upon copper supplementation (CuCl2) and copper depletion (BCS) treatments, respectively, as measured by FCP-1 imaging were supported by complementary ICP-MS measurements of total copper levels showing expected increases and decreases in the total copper pool (FIG. 9, panel C).

SMILES: CC[N+](CC)=c1ccc2c(-c3ccccc3C(=O)O)c3ccc(N4CCN(Cc5cccc(CN(Cc6ccccn6)Cc6cccc(COc7ccc8c(-c9ccccc9C(=O)OC)c9ccc(=O)cc-9oc8c7)n6)n5)CC4)cc3oc-2c1 [FCP-1]
- FRET efficiency ([1]; FL-TPA as reference FRET donor, 1−(PLQY of FCP-1/PLQY of FL-TPA)): 84%
- absorption maxima ([1]; PBS buffer containing glutathione (2 mM) and PEG-400 (40%, v/v)): 465 nm and 493 nm and 552 nm
- molar extinction coefficient ([1]; at 465 nm): 20,000 M^−1 cm^−1
- molar extinction coefficient ([1]; at 493 nm): 22,100 M^−1 cm^−1
- molar extinction coefficient ([1]; at 552 nm): 40,000 M^−1 cm^−1
- emission wavelength ([1]; photoexcitation at 458 nm): 526 nm and 576 nm
- Fgreen/Forange ratio in copper-deficient cells compared to control ([2]; BCS 100 μM pretreatment, FCP-1 5 μM): statistically significant decrease
- Fgreen/Forange ratio in copper-supplemented cells over vehicle control ([2]; CuCl2 25-300 μM pretreatment, FCP-1 5 μM 45 min): statistically significant, dose-dependent increase
- cell viability by nuclear staining ([2]; FCP-1 5 μM, DRAQ-5 (FIGS. 10-11)): remained viable
